Values of other authors, collected in patent US8092782B2, “Polybiotin compounds of magnetic resonance imaging and drug delivery” (priority 2003, dated 2012).

- solubility in water: insoluble
Substance: triacetyl-beta-cyclodextrin
